Source: paper PMC4165461 (Analytical Chemistry, 2014)
*1 amine or outer side, *2 acyl side, *3 side chain or, on linkers, in order; H or OH if unused. Where a SMILES comes first, the peptide text is derived from it. CO = O=C([*:1])[*:2]

Each compound was assayed on CC(C)[C@H](NC(=O)[C@H](Cc1ccccc1)NC(=O)CNC(=O)[C@H](Cc1ccccc1)NC(=O)CN)C(=O)NCC(=O)NCC(=O)O (assay: purified protein, by the assay type). Settings: other: substrate 0 to 400 μM, 50 nM cathepsin B; 37.0 °C.
cathepsin B (Homo sapiens) showed a Km of 270 ± 34 µM.

The compounds below were run against cathepsin B (Homo sapiens, UniProt P07858) (assay: Cathepsin B assay by droplet ESI-MS). Settings: 25 μM each.
`CC(C)C[C@H](NC(=O)[C@H]1O[C@@H]1C(=O)O)C(=O)NCCCCN=C(N)N` (relative stereo) [E-64, L-trans-3-carboxyoxiran-2-carbonyl-L-leucylagmatine] was tested, and the “result in the 24-compound pilot screen” value was “detected as inhibitors”.
With `CC(C)[C@H](NC(=O)[C@H](CCCNC(=N)N)NC(=O)N[C@@H](Cc1ccccc1)C(=O)O)C(=O)N[C@H](C=O)CCCNC(=N)N` [antipain, [(S)-1-carboxy-2-phenylethyl]carbamoyl-L-arginyl-L-valyl-argininal] ({Phe-CO}-Arg-Val-Arg-aldehyde) the “result in the 24-compound pilot screen” value was “detected as inhibitors”.
With `CC(C)C[C@H](NC(=O)[C@@H](NC(=O)N[C@@H](Cc1ccccc1)C(=O)O)[C@@H]1CCN=C(N)N1)C(=O)N[C@H](C=O)Cc1ccccc1` [chymostatin, N-(Nα-carbonyl-[S,S]-α-(2-iminohexahydro-4-pyrimidyl)glycine-X-Phe-al)-Phe, X = Leu, Val, or Ile] the “result in the 24-compound pilot screen” value was “detected as inhibitors”.
`CC(=O)N[C@@H](CC(C)C)C(=O)N[C@@H](CC(C)C)C(=O)N[C@H](C=O)CCCNC(=N)N` [leupeptin, N-acetyl-L-leucyl-L-leucyl-L-argininal] was tested, and the “result in the 24-compound pilot screen” value was “detected as inhibitors”.

Same assay, conditions: read-out: reduction of reaction yield in the primary screen
For `[H]/N=C(\N/C(=N/[H])NCCCCCCNC(=N)NC(=N)Nc1ccc(Cl)cc1)Nc1ccc(Cl)cc1` [Chlorhexidine, chlorhexidine], the inhibition at 25 µM was at least 40%.
Work on `O=c1cc(-c2ccc(O)c(O)c2)oc2cc(O)cc(O)c12` [Luteolin, luteolin] yielded an inhibition at 25 µM of at least 40%.
Work on `CSc1nc2cc(Cl)c(Oc3cccc(Cl)c3Cl)cc2[nH]1` [Triclabendazole, triclabendazole] yielded an inhibition at 25 µM of at least 40%.
In the case of `O=C1c2c(O)cccc2Cc2cccc(O)c21` [anthralin], the inhibition at 25 µM is reported as at least 40%.
Compound `CC(=O)Oc1cccc2c1C(=O)c1c(OC(C)=O)cc(C(=O)O)cc1C2=O` [diacerein] has an inhibition at 25 µM of at least 40%.
`CCN(CC)C(=S)SSC(=S)N(CC)CC` [disulfiram] gave an inhibition at 25 µM of at least 40%.
With `C=C(CC)C(=O)c1ccc(OCC(=O)O)c(Cl)c1Cl` [ethacrynic acid] the inhibition at 25 µM was at least 40%.
`Oc1c(Cl)cc(Cl)c(Cl)c1Cc1c(O)c(Cl)cc(Cl)c1Cl` [hexachlorophene] was tested, and the inhibition at 25 µM was at least 40%.
`O=C(c1ccc(OCCN2CCCCC2)cc1)c1c(-c2ccc(O)cc2)sc2cc(O)ccc12` [raloxifene] showed an inhibition at 25 µM of at least 40%.
With `Oc1cc(Cl)ccc1Oc1ccc(Cl)cc1Cl` [triclosan] the inhibition at 25 µM was at least 40%.
